Reference: patent US7816511B2, “Remedies for heart failure” (Asubio Pharma Co., Ltd., priority 2000, dated 2010)

How the values were obtained:
OSF-2 promoter = assay: Reporter assay using COS-1 cells with human OSF-2 reporter plasmid pGL3-hOSFgE (luciferase); format: cell-based; settings: 24 hours after compound addition, pGL3-control (SV40 promoter) as control
Text: A region extending from about 2 kb upstream of the initiation codon to immediately before the initiation codon was amplified by PCR using human OSF-2 gene #2 obtained in Example 10-1 as a template and primers (12) 5′-[…]-3′ (SEQ ID NO: 25) and (13) 5′-[…]-3′ (SEQ ID NO: 26). Primer (13) was designed to insert a restriction enzyme XhoI recognition site into the 5′ end, and this amplified fragment was digested with restriction enzymes SpeI and XhoI to give a fragment of about 2 kb, which was then ligated to a vector fragment of pGL3-enhancer (Promega) digested with restriction enzymes NheI and XhoI located upstream of the luciferase gene using a ligation kit (TAKARA SHUZO CO., LTD.) to give pGL3-hOSFgE. The nucleotide sequence of the insert was determined according to the method of Example 1-5 to confirm that it was identical with the nucleotide sequence determined in Example 10-1.
COS-1 cells were plated on a 96-well plate at a density of 3×10^4 cells/well and the plate was incubated at 37° C. for 16-24 hours and then transiently transfected with OSF-2 reporter plasmid pGL3-hOSFgE shown in Example 10 using LipofectAMINE 2000 reagent (GIBCO), and after incubation for 24 hours at 37° C., the medium was replaced. […] Luciferase activity was assayed according to the protocol of a luciferase assay system (Promega) and detected with 1420 multilabel counter (Wallac). […]

OSF-2 mRNA = assay: Expression analysis of OSF-2 mRNA using MC3T3-E1 cells (real-time PCR); format: cell-based, murine; settings: 30 μM, 24 hours
Sprague-Dawley rats = assay: Echocardiography 3 weeks after co-transfection of rOSF-2 plasmid and antisense/sense/scramble nucleotides into the rat heart; format: in vivo; settings: 3 weeks post transfection; for EDV: end-diastolic volume / ESV: end-systolic volume / FS: fractional shortening of the inner diameter of the left ventricle / IVPWD / IVSTD: thickness of the end-diastolic interventricular septum / LVIDD: inner diameter of the end-diastolic left ventricle / LVIDS: inner diameter of the end-systolic left ventricle / LVPWS: thickness of the posterior wall of the end-systolic left ventricle / TVSTS: echocardiography, nucleotides co-injected with rOSF-2 plasmid
Experimental: HVJ-liposomes were prepared as described in Example 6 by adding 50 μl of HMG-1,-2 mixture (1 mg/ml, Wako Pure Chemical Industries) to 200 μg of the plasmid solution prepared in Example 6.1 and 1.4 mg of the antisense nucleotide solution selected in Example 7. Sense and scramble nucleotide sequences were also prepared in the same manner.
The HVJ-liposome/DNA solution was injected into the left ventricle of the heart (apical and lateral sites) of 13-weeks old Sprague-Dawley rats (male) in an amount of 100 μl each at 3 sites (a total volume of 300 μl) using a 30-gauge needle (rOSF-2/antisense group, rOSF-2/sense group and rOSF-2/scramble group). Similarly, pcDNA4/rOSF-2 was injected as a positive control group and pcDNA4/His-Myc vector was injected as a negative control group.
After anesthesia with ketamine (50 mg/ml) and xylazine (10 mg/ml) at 3 weeks post transfection, echocardiography was performed using Core Vision Pro SSA 350A (probe: 7 MHz, Toshiba).

Dahl-S rats = assay: Survival of Dahl-S heart failure model rats after antisense transfection into the heart; format: in vivo, rat; settings: 30 weeks post transfection, Dahl-S rats on 8% salt diet
Experimental: HVJ-liposomes were prepared as described in Example 6.2 by adding 50 μl of HMG-1,-2 mixture (1 mg/ml, Wako Pure Chemical Industries) to 1.4 mg of a solution of the antisense nucleotides selected in Example 7 dissolved in BSS buffer. Sense nucleotides were also prepared in the same manner.
The HVJ-liposome/DNA solution was injected into the left ventricle of the heart (apical and lateral sites) of 13-weeks old Dahl-S rats (DIS/Eis, Eisai, male) raised on an 8% salt diet from the age of 8 weeks in an amount of 75 μl each at 4 sites (a total volume of 300 μl) using a 30-gauge needle (antisense group: 13 rats, sense group: 13 rats).

[1] = system: Myc-His-rOSF-2 fused protein; assay: Selection of antisense nucleotide sequences: ELISA of Myc-His-rOSF-2 fused protein in transfected COS-1 cells; format: cell-based, rat
Text: Five antisense nucleotide sequences shown as SEQ ID NOs: 12-16 were designed by selecting regions containing an initiation codon AUG but not containing three continuous guanines (triplet G) and incapable of forming a hairpin structure or self-annealing and synthesized by an outer contractor. All the antisense nucleotide sequences are phosphorothioate type.
The Myc-His-rOSF-2 fused protein expression vector pcDNA4/Myc-His/rOSF-2 described in Example 5 was introduced into COS-1 cells, and the antisense nucleotide sequences prepared in 1 above were introduced to screen antisense nucleotide sequences inhibiting the expression of Myc-His-rOSF 2 fused protein. The expression level of Myc-His-rOSF-2 fused protein was assayed by ELISA (Enzyme-Linked Immunosorbent Assay) using a Myc-specific monoclonal antibody (Invitrogen). Specifically, COS-1 cells were plated on a 96-well plate at a density of 2×10^4 cells/well. […]
The culture supernatant was immobilized to an EIA/RIA plate (Costar) by incubating 50 μl thereof at 37° C. for 1-2 hours, and washed twice with 200 μl of Dulbecco's phosphate-buffered saline containing 0.1% Tween (PBST). […] After incubation with 50 μl of TMB (3,3′,5,5′-tetramethylbenzidine) reagent (KPL) at room temperature for 30 minutes, the reaction was stopped by adding 50 μl of 0.1 N sulfuric acid and the absorbance at 450 nm was measured with a microplate reader. […]

| Compound | luciferase activity (OSF-2 promoter) | expression of OSF-2 mRNA (standardized by GAPDH mRNA) (OSF-2 mRNA) | cardiac dilatation (LVIDD, LVIDS vs. positive control, sense and scramble groups) (Sprague-Dawley rats) | EDV: end-diastolic volume (Sprague-Dawley rats) | ESV: end-systolic volume (Sprague-Dawley rats) | FS: fractional shortening of the inner diameter of the left ventricle (Sprague-Dawley rats) | IVPWD (Sprague-Dawley rats) | IVSTD: thickness of the end-diastolic interventricular septum (Sprague-Dawley rats) | LVIDD: inner diameter of the end-diastolic left ventricle (Sprague-Dawley rats) | LVIDS: inner diameter of the end-systolic left ventricle (Sprague-Dawley rats) | LVPWS: thickness of the posterior wall of the end-systolic left ventricle (Sprague-Dawley rats) | TVSTS (Sprague-Dawley rats) | survival rate (Dahl-S rats) | inhibitory activity against OSF-2 protein production ([1]; final concentration 10 nM, FIG. 3) | inhibitory activity against OSF-2 protein production ([1]; final concentration 100 nM, 3 days, FIG. 2) |
| --- | --- | --- | --- | --- | --- | --- | --- | --- | --- | --- | --- | --- | --- | --- | --- |
| Nc1nc(Cl)nc2c1ncn2[C@@H]1O[C@H](COP(=O)([O-])OP(=O)([O-])OP(=O)([O-])[O-])[C@@H](O)[C@H]1O.[Na+].[Na+].[Na+].[Na+] [2-chloroadenosine 5′-triphosphate tetrasodium] | inhibit luciferase activity specifically to OSF-2 promoter | inhibited the expression of OSF-2 mRNA |  |  |  |  |  |  |  |  |  |  |  |  |  |
| Cc1ccccc1CNc1ncnc2c1ncn2[C@@H]1O[C@H](CO)[C@@H](O)[C@H]1O [Metrifudil, N-[(2-methylphenyl)methyl]-adenosine] | inhibit luciferase activity specifically to OSF-2 promoter | inhibited the expression of OSF-2 mRNA |  |  |  |  |  |  |  |  |  |  |  |  |  |
| SEQ ID NO: 12: phosphorothioate antisense nucleotide sequence containing the initiation codon region of rat OSF-2; the one selected in Example 7 (AGGAACCATCTTCAGCCCTG; all phosphorothioate, sugars by position and methylation of C not given here) |  |  | inhibited cardiac dilatation | 210.0 ± 6.8 µL | 43.3 ± 5.1 µL | 49.5 ± 1.7% | 2.20 ± 0.13 mm | 1.68 ± 0.12 mm | 6.42 ± 0.09 mm | 3.25 ± 0.15 mm | 2.80 ± 0.17 mm | 3.07 ± 0.16 mm | 100% | stronger inhibitory activity against OSF-2 protein production than the sense and scramble nucleotide sequences | inhibited the expression the most strongly |
| scramble: scramble nucleotide sequence with the 5′, 3′ direction reversed to SEQ ID NO: 12 (GTCCCGACTTCTACCAAGGA; listed as DNA, chemistry not given here) |  |  |  | 307.6 ± 10.4 µL | 73.4 ± 7.5 µL | 46.7 ± 1.6% | 1.68 ± 0.07 mm | 1.26 ± 0.12 mm | 7.60 ± 11 mm | 4.06 ± 0.18 mm | 2.66 ± 0.07 mm | 2.60 ± 0.15 mm |  |  |  |
| sense: sense nucleotide sequence that is a sense strand corresponding to SEQ ID NO: 12 (CAGGGCTGAAGATGGTTCCT; listed as DNA, chemistry not given here) |  |  |  | 339.2 ± 17.9 µL | 82.4 ± 10.2 µL | 46.7 ± 1.6% | 1.46 ± 0.11 mm | 1.26 ± 0.07 mm | 7.93 ± 0.18 mm | 4.24 ± 0.22 mm | 2.30 ± 0.15 mm | 2.50 ± 0.07 mm | 61.5% |  |  |
